Earlier results in US20230405034A1, “FORMULATION OF IVERMECTIN IN SOFT GELATIN CAPSULES” (PROCAPS S.A., priority 2020, published 2023).

Tests used:
[1] = cited from earlier work
[2] = tested on: pseudorabies DNA virus (PRV); conditions: ivermectin treatment; cited from earlier work
SARS-CoV-2 = SARS-CoV-2 in vitro, after 48 hours; cited from earlier work
[3] = in vivo; cited from earlier work

Substance	solubility in water [1]	survival in PRV-infected mice [2]	reduction in viral RNA (SARS-CoV-2)	plasma half-life [3]
Ivermectin	practically insoluble in water	increases survival	approximately 5,000 fold	–
medium chain triglycerides	–	–	–	approximately 17 minutes
